PubChem BioAssay AID2060496 (Molecular Pharmacology Branch, DTP, NCI, 2025)

Tested on: 276233-004-R-J1-PDC complex spheroid viability
Assay: Anticancer human tumor 276233-004-R-J1-PDC patient-derived colon adenocarcinoma cell line growth inhibition [GQUAD]
Conditions: for IC50: curve of first compound; for viability, T/C: stronger effect = lower value
Excerpt: DNA G-quadruplex Stabilizer Agents in Combinations in Complex Spheroids
A high-throughput screen of multi-cell type tumor spheroids was designed to identify active combinations of DNA G-quadruplex stabilizer agents and targeted small molecules. Complex spheroids include a stromal component modeled by human endothelial cells (HUVEC) and fibroblasts modeled by human mesenchymal stem cells (MSCs). The concentration ranges selected for each drug and investigational agent were based upon clinically achievable concentrations if the clinical Cmax of the agent was known.
Compounds. The drugs and investigational agents: pidnarulex (CX-5461; NSC782164), APTO-253 (NSC789042), BRACO-19 (NSC847499), peposertib (NSC802822), ceralasertib (NSC780249), elimusertib (NSC800525), camonsertib (NSC841442), AZD-1390 (NSC803789), olaparib (NSC753686), talazoparib (NSC767125), ART-558 (NSC835418), sotorasib (NSC818433), MRTX-1133 (NSC836407), SN-38 (NSC673596), topotecan (NSC609699), etoposide (NSC141540), doxorubicin (NSC123127), gemcitabine (NSC613327), 5-fluorouracil (NSC19893), paclitaxel (NSC125973), vemurafenib (NSC761431), panobinostat (NSC761190), R-306465 (JNJ-16241199; NSC773264), adavosertib (NSC754352), TP-3654 (NSC805149), carboplatin (NSC241240), KSQ-4279 (NSC840948), and staurosporine (NSC755774) were obtained from the National Cancer Institute (NCI) Developmental Therapeutics Program Chemical Repository (34). The FDA-approved anticancer drug set is available from the NCI Developmental Therapeutics Program. […] The stock solutions were prepared in dimethyl sulfoxide (DMSO, Sigma-Aldrich, St. Louis, MO, cat. D2650) at 800-fold the tested concentration and stored at -70 degrees C prior to their use. All drugs and investigational agents were tested over a range starting from a high concentration at or near the clinical Cmax and decreasing in half-log increments. If the clinical Cmax for an agent had not been determined, the highest concentration tested was 10 microM.
2.3 Cell Culture. All cells were maintained in an incubator at 37 degrees C and 5% CO2 with 95% humidity. The PDC lines were cultured according to standard operating procedures established by the NCI PDMR. All PDCs were thawed and cultured in Matrigel-coated flasks prepared with a working solution of 1X Ham's F-12 nutrient mix, without supplementation (Invitrogen, cat. 11765054), 100 U/mL penicillin-streptomycin (Invitrogen, cat. 15140122), and 2.5% Matrigel (Corning Inc., cat. 354248) for the first three passages. The 857933-349-R-J2-PDC line was cultured in 6C/Colon 1B media, which includes advanced DMEM/F-12 (Thermo Fisher Scientific, cat. 12634028), 10 mM HEPES (Thermo Fisher Scientific, cat. 15630080), 1X GlutaMAX supplement (Thermo Fisher Scientific, cat. 35050061), 0.1 mg/mL primocin (InvivoGen, cat. ant-pm-2), 10% defined fetal bovine serum, heat inactivated (HyClone Laboratories Inc., cat. SH30070.03HI), 50% L-WRN conditioned media (ATCC, cat. CRL-3276), 1.25 mM N-Acetyl-L-cysteine (Sigma-Aldrich, cat. A9165), 10 mM nicotinamide (Sigma-Aldrich, cat. N0636), 1X B-27 supplement (Thermo Fisher Scientific, cat. 17504044), 1X N-2 supplement (Thermo Fisher Scientific, cat. 17502048), 10 microM Y-27632 dihydrochloride (Tocris Bioscience, cat. 1254), and 50 ng/mL human EGF recombinant protein (Thermo Fisher Scientific, cat. PHG0311). The 485176-168-R4-J1-PDC line was cultured in Panc media, which includes all 6C/Colon 1B media components plus 100 ng/mL human FGF-10 (Thermo Fisher Scientific, cat. 100-26), 500 nM SB-431542 (Selleckchem, cat. S1067), and gastrin (Tocris, cat. 3006).
[…]
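Note: spheroids exposed to drugs for seven days.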
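Throughout, for viability, T/C: 100% = DMSO vehicle control viability.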

CCc1c2c(nc3ccc(O)cc13)-c1cc3c(c(=O)n1C2)COC(=O)[C@]3(O)CC + CN(C)c1ccc(Nc2c3ccc(NC(=O)CCN4CCCC4)cc3nc3cc(NC(=O)CCN4CCCC4)ccc23)cc1
IC50 (second compound 0.0316 µM): > 316 nM
IC50 (second compound 0.1 µM): > 316 nM
IC50 (second compound 0.316 µM): > 316 nM
IC50 (second compound 1 µM): > 316 nM
IC50 (second compound 3.16 µM): < 0.999 nM
IC50 (second compound 10 µM): < 0.999 nM
viability, T/C (second compound 0.0316 µM, first compound 0.000999 µM): 102%
viability, T/C (second compound 0.0316 µM, first compound 0.00316 µM): 104%
viability, T/C (second compound 0.0316 µM, first compound 0.00999 µM): 104%
viability, T/C (second compound 0.0316 µM, first compound 0.0316 µM): 105%
viability, T/C (second compound 0.0316 µM, first compound 0.0999 µM): 108%
viability, T/C (second compound 0.0316 µM, first compound 0.316 µM): 117%
viability, T/C (second compound 0.1 µM, first compound 0.000999 µM): 94.3%
viability, T/C (second compound 0.1 µM, first compound 0.00316 µM): 84.9%
viability, T/C (second compound 0.1 µM, first compound 0.00999 µM): 101%
viability, T/C (second compound 0.1 µM, first compound 0.0316 µM): 107%
viability, T/C (second compound 0.1 µM, first compound 0.0999 µM): 99.7%
viability, T/C (second compound 0.1 µM, first compound 0.316 µM): 117%
viability, T/C (second compound 0.316 µM, first compound 0.000999 µM): 60.1%
viability, T/C (second compound 0.316 µM, first compound 0.00316 µM): 71.1%
viability, T/C (second compound 0.316 µM, first compound 0.00999 µM): 75.7%
viability, T/C (second compound 0.316 µM, first compound 0.0316 µM): 76.4%
viability, T/C (second compound 0.316 µM, first compound 0.0999 µM): 79.5%
viability, T/C (second compound 0.316 µM, first compound 0.316 µM): 91.8%
viability, T/C (second compound 1 µM, first compound 0.000999 µM): 60.3%
viability, T/C (second compound 1 µM, first compound 0.00316 µM): 50.9%
viability, T/C (second compound 1 µM, first compound 0.00999 µM): 67.2%
viability, T/C (second compound 1 µM, first compound 0.0316 µM): 71.6%
viability, T/C (second compound 1 µM, first compound 0.0999 µM): 70%
viability, T/C (second compound 1 µM, first compound 0.316 µM): 89.7%
viability, T/C (second compound 3.16 µM, first compound 0.000999 µM): 50.8%
viability, T/C (second compound 3.16 µM, first compound 0.00316 µM): 46.4%
viability, T/C (second compound 3.16 µM, first compound 0.00999 µM): 72.6%
viability, T/C (second compound 3.16 µM, first compound 0.0316 µM): 70.8%
viability, T/C (second compound 3.16 µM, first compound 0.0999 µM): 75.3%
viability, T/C (second compound 3.16 µM, first compound 0.316 µM): 70.4%
viability, T/C (second compound 10 µM, first compound 0.000999 µM): 44%
viability, T/C (second compound 10 µM, first compound 0.00316 µM): 55.1%
viability, T/C (second compound 10 µM, first compound 0.00999 µM): 59.1%
viability, T/C (second compound 10 µM, first compound 0.0316 µM): 65.9%
viability, T/C (second compound 10 µM, first compound 0.0999 µM): 78.5%
viability, T/C (second compound 10 µM, first compound 0.316 µM): 76.4%
